According to PubChem BioAssay AID1159559 (GlaxoSmithKline (GSK), 2015):
Calls of active or inactive are those of the source.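 How the source made its calls: active means compounds whose IC50 against parasite growth in infected mouse cells is below 50000 nM; inactive means the rest.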

Tested on: T. cruzi Tulahuen in NIH-3T3, beta-gal fluorescence, 4 d
Test: anti-Chagas amastigote proliferation inhibitors – cell-based (AID 1159559)

Structure (SMILES)	IC50
O=C(Nc1ccc(-c2nc3ccccc3c(=O)[nH]2)cc1)c1cccs1	3200 nM
CC(C)CC(=O)NC(c1cccs1)c1ccc2cccnc2c1O (centres undefined)	1600 nM
O=c1cc(NCCCNCc2cc(C(F)(F)F)cs2)[nH]c2ccccc12	7900 nM
O=C(Nc1ccc(Br)c(Cl)c1)Nc1ccc2c(c1)OCO2	2500 nM
CCOc1ccc(NC(=O)C=Cc2ccc(CC)o2)cc1	2000 nM
C[C@@H](Oc1cc(-n2cnc3ccc(CC(O)CO)cc32)sc1C(N)=O)c1ccccc1Cl (some centres undefined)	3200 nM
Cc1nc2c(-c3n[nH]c(-c4ccccc4N)n3)cccn2c1C	4000 nM
c1ccc2sc(Nc3nc4ncccc4[nH]3)nc2c1	1000 nM
O=C1CN(C2CCCc3c(OCc4ccncc4)cccc32)C(=O)N1C1CCCCC1 (centres undefined)	250 nM
Cc1[nH]nc(Nc2ccnc3[nH]ccc23)c1C	4000 nM
O=C(NCC1CCCCC1)c1cnns1	2500 nM
CCOc1ccc2nc(NC(=O)c3ccc([N+](=O)[O-])s3)sc2c1	1600 nM
Cc1cc(Br)sc1CNCCCNc1cc(=O)c2ccccc2[nH]1	1600 nM
Cc1nc2c(-c3ncn[nH]3)cc(NC(=O)Cc3ccccc3)cn2c1C	1000 nM
Cc1nn(C2CCS(=O)(=O)C2)c(C)c1CN(C)C(=O)C=Cc1sc2ccccc2c1Cl (centres undefined)	630 nM
O=C(Nc1nc(-c2ccc(F)cc2)cs1)c1ccc([N+](=O)[O-])s1	200 nM
COc1cccc(CN(C)Cc2nc(N)c3c(C)c(C)sc3n2)c1	6300 nM
CC(C)(C)C(O)(CCc1ccc(Cl)cc1)Cn1cncn1 (centres undefined)	130 nM
NS(=O)(=O)c1ccc(CNC(=O)c2ccc([N+](=O)[O-])s2)cc1	1000 nM
O=C(NCc1ccc(-n2cccc2)cc1)c1nc(Cn2ccc([N+](=O)[O-])n2)no1	2500 nM
CC(C)CC(=O)Nc1cc(C2CC2)nn1-c1nc2c(c(=O)[nH]1)CCCC2	790 nM
NCC(Cc1ccccc1)NC(=O)c1cnc(-c2c[nH]c3ncccc23)s1 (centres undefined)	2000 nM

Structure (SMILES)	IC50
Nc1nc(-c2ccccn2)nc(N)c1Cc1c(F)cccc1Cl	1600 nM
O=C(Nc1cccc(F)c1)N1CCC(Oc2cccc(-c3cccnc3)c2)CC1	630 nM
c1ccc(-c2nc(NC3CCCC3)c3ccccc3n2)nc1	2000 nM
O=C1NCCn2ccc(Nc3nc(NC4CCC(O)CC4)ncc3Cl)c21 (centres undefined)	6300 nM
COc1ncc(-c2ccc3ncnc(N4CCOCC4)c3c2)cc1NS(C)(=O)=O	500 nM
Cc1nn2c(NCCCO)c3c(nc2c1-c1cccs1)CCC3	16000 nM
Oc1cccnc1-c1n[nH]c(Cc2ccccc2)n1	6300 nM
CC(C)(C)Nc1nc(-c2ccccn2)nc2ccccc12	1300 nM
Cn1ccnc1CN1CCc2[nH]cnc2C1c1ccccc1OCc1ccccc1 (centres undefined)	40000 nM
CC(=O)Nc1ccc(CN2CCC(N3CC(c4ccccc4)(c4ccccc4)OCC3=O)CC2)cc1	13000 nM
Cc1ccc(NC(=O)c2ccc(Cl)c(NC(=O)c3ccc([N+](=O)[O-])cc3)c2)cc1	630 nM
NCc1ccc2c(Cl)cc(Cl)c(O)c2n1	2500 nM
C=CCN(Cc1cccs1)C(=O)CSc1nnc(-c2ccc3c(c2)OCO3)o1	6300 nM
Cc1nc(-c2ccc3c(c2)OCO3)sc1C(=O)NCc1ccc2c(c1)OCO2	3200 nM
O=C(CC1(O)C(=O)N(Cc2ccccc2)c2ccc(Br)cc21)c1cccnc1 (centres undefined)	5000 nM
O=C(CCc1ccc(-c2ccccc2)o1)N1CCN(c2ccc(O)cc2)CC1	3200 nM
COc1ccc(OC)c(S(=O)(=O)N(Cc2c(F)cccc2F)[C@@H]2CCN(C#N)C2)c1	6300 nM
CNc1cncc(C2CCCN2C(=O)Cc2ccc3ccccc3c2)n1 (centres undefined)	79 nM
CCOC(=O)c1cn[nH]c1S(=O)(=O)N1CCC1c1ccccc1 (centres undefined)	> 50000 nM (inactive)
COc1ccc(NC(=O)c2ccc(NC(=O)CN(c3ccccc3C)S(C)(=O)=O)cc2)cc1	32000 nM
NC(N)=Nc1nc(-c2ccc(NC(N)=NCCN3CCCC3)cc2)cs1	> 50000 nM (inactive)
CN(Cc1nnnn1C1CCN(Cc2ccc(-n3ccnc3)cc2)CC1)c1ccc(F)cc1F	320 nM

Structure (SMILES)	IC50
Cc1[nH]nc(C(F)(F)F)c1NC(=O)CCn1cc(Cl)c([N+](=O)[O-])n1	7900 nM
O=C(Cn1cnc2cc([N+](=O)[O-])ccc2c1=O)NCCc1ccc(Cl)cc1Cl	630 nM
N#Cc1nc(C=Cc2ccccc2)oc1NCc1cccnc1	250 nM
CC1=NN(C(=O)CCn2cnc([N+](=O)[O-])n2)C(O)(C(F)(F)F)C1 (centres undefined)	2000 nM
CC(C)COC(=O)Nc1ccc(N2CCC(CNS(=O)(=O)c3ccccc3)CC2)c(F)c1	10000 nM
C=CCOCC1Cn2nc([N+](=O)[O-])nc2O1 (centres undefined)	500 nM
COc1ccc2ncc(=O)n(CCN3CCOC(CNCc4ccc(C(F)(F)F)cc4F)C3)c2n1 (centres undefined)	400 nM
COc1cnc2ccc(=O)n(CCN3CCC(NC(=O)Cc4ccc(Cl)c(Cl)c4)CC3)c2c1	320 nM
CS(=O)(=O)c1cccc(CNC(=O)c2cncc(N3CCN(c4ccc(F)cc4)CC3)c2)c1	630 nM
COc1ccc(S(=O)(=O)Nc2ccc(CN3CCN(C(=O)c4cccc(C#N)c4)CC3)cc2)cc1	1000 nM
Cc1ccnc(NS(=O)(=O)c2ccc(NC(=O)c3ccc([N+](=O)[O-])s3)cc2)n1	2000 nM
CC(=Cc1ccccc1)CN1CCC(=O)N(Cc2cccnc2)CC1	250 nM
O=C(Nc1ccc(C(F)(F)F)cc1)NC1(C(=O)NCc2ccco2)CCCCC1	7900 nM
COc1ccc(CN(C)Cc2ccncc2)cc1-c1ccc(S(=O)(=O)NC2CCC2)s1	500 nM
CCOC(=O)c1noc(N)c1-c1ccccc1	> 50000 nM (inactive)
COc1ccc(-c2csc(NC(=O)c3ccc([N+](=O)[O-])s3)n2)cc1OC	100 nM
Cc1ccc2onc(Nc3ccnc(Nc4cccc(S(C)(=O)=O)c4)n3)c2c1	4000 nM
COc1cnc2ccc(=O)n(CCN3CCC(NC(=O)c4ccc(Cl)cc4)CC3)c2c1	130 nM
Cc1nc(-c2ccncc2)ncc1C(C)NC(=O)c1ccc(Cl)s1 (centres undefined)	25000 nM
CNc1c(C(N)=O)c(-c2ccc3scnc3c2)nn1CC(F)(F)F	130 nM
CNc1cc(C)nc(C2CN(C(=O)c3n[nH]c4ccccc34)CCO2)c1 (centres undefined)	1300 nM
CCCCNc1nccc(-c2c(-c3ccc(F)cc3)nn3c(N4CCOCC4)cccc23)n1	400 nM

Structure (SMILES)	IC50
Cc1ccc(Nc2nc(N)nc(CNC(c3nc4ccccc4[nH]3)C(C)C)n2)cc1 (centres undefined)	1000 nM
Cc1ccc(C)c(-n2nnnc2Sc2nc([N+](=O)[O-])nn2C)c1	500 nM
COc1ccc(Nc2nccc(N(C)c3n[nH]c4c(F)cccc34)n2)cc1S(C)(=O)=O	2000 nM
CCOc1ccc(OCC(=O)N2c3ccccc3CC2C(=O)NC)cc1 (centres undefined)	> 50000 nM (inactive)
CNc1cc(Cn2c(C(=O)c3cc(C)cc(Cl)c3)c(C(C)C)c(=O)[nH]c2=O)ccn1	40 nM
CC(=O)NCCNc1cc(-c2ccnc(Nc3cccc(Cl)c3)n2)ccn1	400 nM
Cc1nccn1C1CCCN(C(=O)c2cc3c(F)cccc3s2)C1 (centres undefined)	630 nM
O=C(N[C@H](CO)c1ccccc1)c1ccc(-c2c[nH]c3nccc(C(F)(F)F)c23)s1	7900 nM
O=C(Nc1nc(-c2ccccn2)cs1)c1ccc(S(=O)(=O)N2CCCCC2)cc1	630 nM
O=C(CN(Cc1ccccn1)Cc1ccccn1)NCc1ccc2c(c1)OCO2	7900 nM
CC(CCc1ccccc1)NC(=O)CN(Cc1ccccn1)Cc1ccccn1 (centres undefined)	2500 nM
Cn1ccnc1-c1nc(NCc2ccccc2Cl)cc(C2CC2)n1	630 nM
Cc1cc(NC(=O)C2CCCCC2)n(-c2nc3c(c(=O)[nH]2)CCC3)n1	320 nM
COc1ccc(C(=O)N2CCC(Nc3cccnc3)C2)c(OC)n1 (centres undefined)	320 nM
O=C(Nc1n[nH]c(-c2ccccn2)n1)C1CC1c1ccccc1 (centres undefined)	16000 nM
COc1ccc(Nc2nc(-c3ccccn3)cs2)c(OC)c1	4000 nM
CNc1nc(C)nc(N2CCc3cc(C(=O)NCc4ccc(-c5ccn[nH]5)cc4Cl)ccc32)n1	> 50000 nM (inactive)
COc1ccc(C(=O)[C@H]2C[C@@H]2CN(Cc2ccccn2)Cc2ccccn2)cc1	1600 nM
O=C1OCc2ccc(Nc3nccc(-c4cnn5ncccc45)n3)cc21	25 nM
CCOc1ccc(Nc2ccc(S(=O)(=O)N3CCN(C)CC3)cc2[N+](=O)[O-])cc1OCC	7900 nM
CCCCc1cc(Nc2cc(C3CCC3)[nH]n2)nc(N2CCC2C(N)=O)n1 (centres undefined)	3200 nM
Cc1ccc(S(=O)(=O)Nc2ccc(CN3CCN(C(=O)c4cccc(C)c4)CC3)cc2)cc1	500 nM

Structure (SMILES)	IC50
O=C(Cc1ccc2c(c1)CCC2)Nc1n[nH]c(-c2ccccn2)n1	10000 nM
c1ccc(-c2nc(NCc3ccco3)c3ccccc3n2)nc1	6300 nM
Cc1nc(C(=O)Nc2ccc3c(c2)OCO3)nn1-c1ccc(F)cc1	3200 nM
COC(=O)c1ccc(-c2cnc3ccc(NCc4ccccn4)nn23)cc1	7900 nM
CC(C)c1cc(C(=O)N2CCCC(c3cc4ncccc4[nH]3)C2)on1 (centres undefined)	2000 nM
CC(C)Oc1ccc(C(=O)Nc2ccc(N3CCOCC3)c(Cl)c2)cc1	1600 nM
NC(=O)c1ccsc1NC(=O)c1ccc([N+](=O)[O-])s1	79 nM
CCN(CC)S(=O)(=O)c1ccc(C)c(NC(=O)c2cc(Cl)c3c(c2)OCO3)c1	6300 nM
Cn1nc(-c2ccc(NC(=O)Cc3ccccc3Cl)cc2)c2c(N)ncnc21	2000 nM
CC(Cn1ccnc1)NC(=O)COc1ccc(Cl)c(Cl)c1 (centres undefined)	200 nM
CC1CN(Cc2ccc(C#N)cc2)CCN1c1ccc(NC(=O)c2ccccc2F)cc1 (centres undefined)	25000 nM
COc1ccc(S(=O)(=O)NCc2ccc(-c3ccc(CN(C)CCO)cc3)cc2)cc1	40 nM
N#Cc1ccc(C(=O)Nc2cccc(-c3cccc(CN4CCC(O)CC4)c3)c2)cc1	5000 nM
O=C(NCc1nnc2n1CCCCC2)c1csc(-c2ccccc2)n1	2500 nM
COc1cc(Nc2nccc(Nc3onc(C)c3C)n2)cc(S(=O)(=O)C2CCOCC2)c1	6300 nM
CCC1Oc2cc(S(=O)(=O)N(C)CC(=O)N3CCc4ccccc4C3)c(C)cc2NC1=O (centres undefined)	200 nM
COc1ccc(Cl)cc1CC(=O)Nc1n[nH]c(-c2ccccn2)n1	10000 nM
COc1ccc(NS(=O)(=O)c2cc(-c3cc(C)[nH]n3)ccc2C)cc1OC	1300 nM
O=C(CN(Cc1ccccn1)Cc1ccccn1)NCc1ccc(-c2csnn2)cc1	4000 nM
O=c1[nH]c(NCCCNCc2cc(Br)cc(Br)c2)nc2ccsc12	630 nM
CN(Cc1nc2ccc(C(=O)NCC3CCCCC3)cc2[nH]1)C1CCCc2cccnc21 (centres undefined)	500 nM
